Patent publication US10131717B2, “Topically administered, skin-penetrating glycosaminoglycan formulations suitable for use in cosmetic and pharmaceutical applications” (London Health Sciences Centre Research Inc., priority 2010, dated 2018)

What was measured:
human dermal fibroblasts = test: Hyaluronan cell coats on cultured human dermal fibroblasts (fluorescent nanosphere exclusion); assay type: cell-based; conditions: hyaluronan 500 μg/mL (350 kDa) or HA-PE-1 25 μg/mL, 1 hour; compared to PBS control; FIG. 1
Experimental: The suitability of the present compositions was assessed by determining its ability to encase/surround cultured dermal fibroblasts grown from a punch biopsy of human skin. Punch biopsies were placed in a sterile tissue culture dish (35×10 mm, tissue culture dish) and cut with small (e.g., 19 G) sterile needles into small fragments. The fragments were allowed to dry briefly (e.g., no more than 10 minutes) to the bottom of the tissue culture dish to promote adherence of the tissue fragments. Dulbecco's modified Eagles Medium (DMEM), supplements with 10% fetal calf serum (FCS) was then gently added and the culture is then placed in a humidified 37° C. incubator supplemented with 5% CO2 for approximately one week. […]
In the images shown in FIG. 1, the hyaluronan cell coat is observed as a dark space since small fluorescent beads are excluded by the coat as denoted by the arrow within the image. Cells without coats […] are entirely covered by the fluorescent beads.

[1] = system: senescent human fibroblasts; test: Percent of cells with hyaluronan coats and coat size in senescent human fibroblasts; assay type: cell-based; conditions: FIG. 2
Experimental: Modified hyaluronan (HA-PE-1), prepared according to Example 2, or hyaluronan alone (350 kDA; 10 mg/mL stock solution in saline) was added to senescent human fibroblasts in increasing concentrations (0-100 μg/mL).
The effect of the addition of modified hyaluronan (HA-PE-1; 50 μg/mL) vs. hyaluronan alone (50 μg/mL) on the cell coat area of the cells was quantified using image analysis (Elements 3.1, Nikon). […] Values are means and S.E.M. for 10 samples.

[2] = system: female BL6 wild-type mice; test: Comparison of ability to penetrate the skin barrier of mice (hyaluronan staining; treated vs untreated area); assay type: in vivo, mouse
Excerpt: HA-PE-2, prepared as described in Example 3, hyaluronan mixed with, but not covalently linked to, lipids in the lecithins present in Example 3 (see Example 1), and hyaluronan alone (no additional phospholipid), were each formulated with a NIVEA Creme cosmetic base cream (1:1, v/v) as described in Example 4. The creams were then applied to the shaved backs (0.18 g HA-PE-2/application, 40×30 mm shaved area) of 9-month old female BL6 wild-type mice once daily for 4 days. After this time, one group of animals was euthanized and processed according to the procedure described in Example 9. A second group of animals were left without further treatment for an additional […] and euthanized/processed as described in Example 9 on day 7.
Since the amount of endogenous hyaluronan in skin can vary with location, internal controls were designed to evaluate hyaluronan staining of treated and control skin were developed to confirm the difference between the treated vs. untreated skin area. HA-PE-2 and control creams (hyaluronan only) were applied to the shaved backs of mice as previously described. Areas of treatment were marked (hair in the adjacent untreated margins was removed with Nair™ and the punch aligned to include the treated and untreated region; tissue punches were orientated in small tissue baskets to keep the tissue in the correct orientation throughout processing and marked with a histology marker pen) and tissue was harvested/processed as previously described (Example 9).

skin barrier = conditions: Kaya et al.; cited from earlier work

hyaluronan
size of the hyaluronan coat (exclusion of fluorescent beads) (human dermal fibroblasts): little additional effect
concentration at which the percentage of cells with coats reached a plateau ([1]; 0-100 μg/mL): 10 µg/mL
percentage of cells that exhibited hyaluronan coats ([1]; increasing concentrations 0-100 μg/mL): fewer cells with hyaluronan coats
hyaluronan staining / hyaluronan penetrating the skin barrier ([2]; creams once daily for 4 days, p<0.000001, FIG. 9, 10): negligible amounts of hyaluronan penetrating the skin barrier
hyaluronan staining in keratinocytes following cessation of treatment ([2]; day 7, treatment stopped after day 4, FIG. 9, 10): remained negligible
hyaluronan staining at the application edge, treated vs untreated area of skin ([2]; internal control, p<0.000001, FIG. 11, 12): a distinct margin of staining was not observed
retention in skin of topically applied hyaluronan (literature) (skin barrier): poorly retained in the epidermal layer
